# Target: T1, full length human recombinant glucocorticoid receptor (Homo sapiens, UniProt P04150)
# T1 construct: partially purified full length human recombinant glucocorticoid receptor; purchased Panvera/Invitrogen PV4302
# T1 sequence (P04150 1-777): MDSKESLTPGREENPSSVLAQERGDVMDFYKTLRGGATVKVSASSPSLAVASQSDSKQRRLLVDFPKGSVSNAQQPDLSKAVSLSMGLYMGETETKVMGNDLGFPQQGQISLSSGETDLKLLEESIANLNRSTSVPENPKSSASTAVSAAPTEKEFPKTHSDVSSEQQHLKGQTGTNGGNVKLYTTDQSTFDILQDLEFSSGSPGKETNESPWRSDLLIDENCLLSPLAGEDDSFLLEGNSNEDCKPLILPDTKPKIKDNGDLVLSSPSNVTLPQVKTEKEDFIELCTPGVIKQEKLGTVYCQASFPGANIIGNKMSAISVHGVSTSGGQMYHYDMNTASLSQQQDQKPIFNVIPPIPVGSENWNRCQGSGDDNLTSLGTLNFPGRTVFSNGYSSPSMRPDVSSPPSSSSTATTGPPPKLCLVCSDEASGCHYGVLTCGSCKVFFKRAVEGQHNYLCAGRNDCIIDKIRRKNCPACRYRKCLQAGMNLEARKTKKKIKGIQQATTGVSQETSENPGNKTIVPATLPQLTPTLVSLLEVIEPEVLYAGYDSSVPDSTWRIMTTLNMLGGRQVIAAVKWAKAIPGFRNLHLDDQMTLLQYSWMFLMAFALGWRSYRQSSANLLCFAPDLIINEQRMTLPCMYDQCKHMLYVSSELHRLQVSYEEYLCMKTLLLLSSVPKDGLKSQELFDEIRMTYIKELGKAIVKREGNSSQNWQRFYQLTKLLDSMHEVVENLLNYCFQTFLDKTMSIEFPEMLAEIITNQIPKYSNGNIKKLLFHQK
# Test: Glucocorticoid Receptor Binding Assay (fluorescence polarization competitor assay, Fluormone GS Far Red tracer)
# Method in brief: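 Serially diluted compounds competed with the tight-binding far-red fluorescent ligand for recombinant full-length human glucocorticoid receptor plus GR-stabilizing peptide (screening buffer pH 7.4; 3 h, 22 °C, dark). Polarization (610-660 nm) gave IC50 via sigmoidal dose-response fits, and Ki was derived by Cheng-Prusoff from tracer concentration and Kd.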
row,SMILES,Ki [nM]
1,"CCOC(=O)c1cc(Oc2ccc(Cl)c([C@H](C)[C@](O)(c3ccc(=O)n(C)c3)C(F)(F)F)c2)ccc1Cl (stereo in doubt) [Example 195, 2-Chloro-5-{4-chloro-3-[3,3,3-trifluoro-2-hydroxy-1-methyl-2-(1-methyl-6-oxo-1,6-dihydro-pyridin-3-yl)-propyl]-phenoxy}-benzoic acid ethyl ester]",17
2,"C[C@@H](c1cc(Oc2ccc(Cl)c(C(=O)O)c2)ccc1Cl)[C@](O)(c1ccc(=O)n(C)c1)C(F)(F)F (stereo in doubt) [Example 196, 2-Chloro-5-{4-chloro-3-[3,3,3-trifluoro-2-hydroxy-1-methyl-2-(1-methyl-6-oxo-1,6-dihydro-pyridin-3-yl)-propyl]-phenoxy}-benzoic acid]",45.8
3,"C[C@H](c1ccc(Oc2ccc(C(=O)O)cc2)c(Cl)c1Cl)[C@@](O)(c1ccc(=O)n(C)c1)C(F)(F)F (stereo in doubt) [Example 198, 4-{2,3-Dichloro-4-[3,3,3-trifluoro-2-hydroxy-1-methyl-2-(1-methyl-6-oxo-1,6-dihydro-pyridin-3-yl)-propyl]-phenoxy}-benzoic acid]",3.4
4,"COC(=O)c1ccc(Oc2ccc([C@@H](C)[C@@](O)(c3ccc(=O)n(C)c3)C(F)(F)F)c(Cl)c2Cl)cc1F (stereo in doubt) [Example 199, 4-{2,3-Dichloro-4-[3,3,3-trifluoro-2-hydroxy-1-methyl-2-(1-methyl-6-oxo-1,6-dihydro-pyridin-3-yl)-propyl]-phenoxy}-2-fluoro-benzoic acid methyl ester]",2.6
5,"C[C@H](c1ccc(Oc2ccc(C(=O)O)c(F)c2)c(Cl)c1Cl)[C@@](O)(c1ccc(=O)n(C)c1)C(F)(F)F (stereo in doubt) [Example 200, 4-{2,3-Dichloro-4-[3,3,3-trifluoro-2-hydroxy-1-methyl-2-(1-methyl-6-oxo-1,6-dihydro-pyridin-3-yl)-propyl]-phenoxy}-2-fluoro-benzoic acid]",2.3
6,"C[C@@H](c1cc(F)c(Oc2ccc(C(=O)O)c(F)c2)cc1Cl)[C@](O)(c1ccc(=O)n(C)c1)C(F)(F)F (stereo in doubt) [Example 202, 4-{5-Chloro-2-fluoro-4-[3,3,3-trifluoro-2-hydroxy-1-methyl-2-(1-methyl-6-oxo-1,6-dihydro-pyridin-3-yl)-propyl]-phenoxy}-2-fluoro-benzoic acid]",47.9
7,"COC(=O)c1ccc(Oc2ccc([C@H](C)[C@](O)(c3cc(C)c(=O)n(C)c3)C(F)(F)F)c(Cl)c2)cc1F (stereo in doubt) [Example 203, 4-{3-Chloro-4-[2-(1,5-dimethyl-6-oxo-1,6-dihydro-pyridin-3-yl)-3,3,3-trifluoro-2-hydroxy-1-methyl-propyl]-phenoxy}-2-fluoro-benzoic acid methyl ester]",0.8
8,"Cc1cc([C@@](O)([C@@H](C)c2ccc(Oc3cc(C(F)(F)F)c(C(=O)O)cn3)cc2Cl)C(F)(F)F)cn(C)c1=O (stereo in doubt) [Example 206, 6-{3-Chloro-4-[2-(1,5-dimethyl-6-oxo-1,6-dihydro-pyridin-3-yl)-3,3,3-trifluoro-2-hydroxy-1-methyl-propyl]-phenoxy}-4-trifluoromethyl-nicotinic acid]",0.7
9,"COC(=O)c1ccc(Oc2ccc([C@H](C)[C@](O)(c3cc(C)c(=O)n(C)c3)C(F)(F)F)c(Cl)c2)cc1Cl (stereo in doubt) [Example 207, 2-Chloro-4-{3-chloro-4-[2-(1,5-dimethyl-6-oxo-1,6-dihydro-pyridin-3-yl)-3,3,3-trifluoro-2-hydroxy-1-methyl-propyl]-phenoxy}-benzoic acid methyl ester]",0.9

# The remaining lines, values ahead:
row,Ki [nM],SMILES
1,1.4,"Cc1cc([C@@](O)([C@@H](C)c2ccc(Oc3ccc(C(=O)O)c(C(F)(F)F)n3)cc2Cl)C(F)(F)F)cn(C)c1=O (stereo in doubt) [Example 209, 6-{3-Chloro-4-[2-(1,5-dimethyl-6-oxo-1,6-dihydro-pyridin-3-yl)-3,3,3-trifluoro-2-hydroxy-1-methyl-propyl]-phenoxy}-2-trifluoromethyl-nicotinic acid]"
2,0.7,"Cc1cc([C@@](O)([C@@H](C)c2ccc(Oc3ccc(Cl)c(C(=O)O)c3)cc2Cl)C(F)(F)F)cn(C)c1=O (stereo in doubt) [Example 211, 2-Chloro-5-{3-chloro-4-[2-(1,5-dimethyl-6-oxo-1,6-dihydro-pyridin-3-yl)-3,3,3-trifluoro-2-hydroxy-1-methyl-propyl]-phenoxy}-benzoic acid]"
3,1.9,"CCOC(=O)c1cc(Oc2ccc([C@H](C)[C@](O)(c3cc(C)c(=O)n(C)c3)C(F)(F)F)c(Cl)c2)ccc1F (stereo in doubt) [Example 212, 5-{3-Chloro-4-[2-(1,5-dimethyl-6-oxo-1,6-dihydro-pyridin-3-yl)-3,3,3-trifluoro-2-hydroxy-1-methyl-propyl]-phenoxy}-2-fluoro-benzoic acid ethyl ester]"
4,0.5,"Cc1cc([C@@](O)([C@@H](C)c2ccc(Oc3ccc(C(=O)O)c(C(F)(F)F)c3)cc2Cl)C(F)(F)F)cn(C)c1=O (stereo in doubt) [Example 214, 4-{3-Chloro-4-[2-(1,5-dimethyl-6-oxo-1,6-dihydro-pyridin-3-yl)-3,3,3-trifluoro-2-hydroxy-1-methyl-propyl]-phenoxy}-2-trifluoromethyl-benzoic acid]"
5,4,"C[C@H](c1ccc(Oc2ccc(C(=O)O)c(C(F)(F)F)c2)cc1Cl)[C@@](O)(c1ccc(=O)n(C)c1)C(F)(F)F (stereo in doubt) [Example 220, 4-{3-Chloro-4-[3,3,3-trifluoro-2-hydroxy-1-methyl-2-(1-methyl-6-oxo-1,6-dihydro-pyridin-3-yl)-propyl]-phenoxy}-2-trifluoromethyl-benzoic acid]"
6,0.6,"C[C@@H](c1ccc(Oc2ccc(C(=O)O)c(Cl)c2)cc1Cl)[C@](O)(c1cc(Cl)c(=O)n(C)c1)C(F)(F)F (stereo in doubt) [Example 222, 2-Chloro-4-{3-chloro-4-[2-(5-chloro-1-methyl-6-oxo-1,6-dihydro-pyridin-3-yl)-3,3,3-trifluoro-2-hydroxy-1-methyl-propyl]-phenoxy}-benzoic acid]"
7,4.7,"COC(=O)c1cnc(Oc2ccc([C@H](C)[C@](O)(c3cc(Cl)c(=O)n(C)c3)C(F)(F)F)c(Cl)c2)cc1C(F)(F)F (stereo in doubt) [Example 223, 6-{3-Chloro-4-[2-(5-chloro-1-methyl-6-oxo-1,6-dihydro-pyridin-3-yl)-3,3,3-trifluoro-2-hydroxy-1-methyl-propyl]-phenoxy}-4-trifluoromethyl-nicotinic acid methyl ester]"
8,3.8,"C[C@@H](c1ccc(Oc2cc(C(F)(F)F)c(C(=O)O)cn2)cc1Cl)[C@](O)(c1cc(Cl)c(=O)n(C)c1)C(F)(F)F (stereo in doubt) [Example 224, 6-{3-Chloro-4-[2-(5-chloro-1-methyl-6-oxo-1,6-dihydro-pyridin-3-yl)-3,3,3-trifluoro-2-hydroxy-1-methyl-propyl]-phenoxy}-4-trifluoromethyl-nicotinic acid]"
9,7.1,"C[C@H](c1ccc(-c2ccc(C(=O)O)c(F)c2)cc1Cl)[C@@](O)(c1cnc2ccccc2c1)C(F)(F)F (stereo in doubt) [Example 225, 3′-Chloro-3-fluoro-4′-(3,3,3-trifluoro-2-hydroxy-1-methyl-2-quinolin-3-yl-propyl)-biphenyl-4-carboxylic acid]"

# Source: patent publication US8138189B2, “Substituted benzene compounds as modulators of the glucocorticoid receptor” (Hoffman-La Roche Inc., priority 2009, dated 2012)
